These results are taken from patent US20090239929A1, “N-Pyrrolidin-3-YL-Amide Derivatives As Serotonin and Noradrenalin Re-Uptake Inhibitors” (priority 2004, published 2009).

Assay [1] concerns the target T1, human serotonin transporter (hSERT) (Homo sapiens, UniProt P31645).
T1 construct: expressed in transfected cells; host or cells: HEK-293
As to the kind of experiment: SPA radioligand binding (3H-citalopram) at the human serotonin transporter. The note with it: hSERT membranes from HEK-293 cells, Cheng-Prusoff, geometric mean, read-out: SRI Ki. The protocol: (§1) The compounds were tested for biological activity by their ability to inhibit binding of selective radioligands at the human serotonin and noradrenaline transporters (SERT and NET, respectively), using scintillation proximity assay (SPA) technology. The SPA binding was performed using cellular membrane preparations prepared from cell lines expressing human cDNA encoding either SERT or NET (hSERT, hNET), using the radioligands ^3H-citalopram and ^3H-nisoxetine.
(§2) Human embryonic kidney cells (HEK-293) expressing each transporter were maintained as a continuous culture, using standard cell culture techniques, in 50 mL of growth medium (see Media and Buffers for composition) in 225 cm^2 flasks, at 37° C. in a humidified atmosphere with 5% CO2 present. Cells were passaged from a 90% confluent monolayer at a ratio of 1:3-1:4.
(§3) For cell harvesting, the growth medium was removed from the monolayer and the cells were incubated with cell dissociation solution (Sigma) until showing signs of dissociation. The cells were subsequently knocked from the base of the flask and pelleted by centrifugation for storage (frozen at −80° C.) prior to further use.
(§4) Cell pellets were thawed on ice and resuspended in 3 mL of membrane preparation buffer (see Media and Buffers for composition) per 1 mL of packed cell volume, using a vortex mixer to disperse the cell pellet.
(§5) After incubation on ice for 10 minutes, the suspension was homogenised for four individual 10 second intervals using a hand-held homogeniser. The homogenate was then centrifuged at 1075×g for 20 minutes at 4° C.
(§6) The supernatants were then collected and retained. Initial cell & nuclei pellets (P1) were subsequently rehomogenised and centrifuged using the conditions cited above, and the supernatants collected and pooled with those retained from the first spin.
(§7) The pooled supernatants were centrifuged at 35000×g for 30 minutes at 4° C., and the supernatants discarded. The pellets (P2) were then resuspended in 1 mL of membrane preparation buffer per 1 mL of the original packed cell volume. Protein concentrations were then measured and the membrane suspension was finally frozen in aliquots of set volume and stored at −80° C. prior to use in assays.
(§8) The specific SPA bead type differed for each transporter, wheat germ agglutinin-coated yttrium silicate (YSi WGA) SPA beads were used for hSERT and WGA-coated polyvinyltoluene (PVT WGA) SPA beads for hNET assays. For each batch of membrane used, optimal concentrations of bead and membrane were determined
(§9) Tritiated radioligands specific to each transporter (^3H-citalopram for hSERT and ^3H-nisoxetine for hNET) were used. The assay free radioligand concentration was expressed as a percentage of the total free radioligand concentration to give an estimate of the radioligand depletion. The radioligand depletion in assays for both transporters was less than 30% to ensure that there was sufficient radioligand available for binding. The ligand depletion value was also used for selecting the optimal assay conditions when using new batches of membranes.
(§10) The affinity of the specific radioligand for the respective transporter was determined for each membrane batch at the selected protein and bead concentrations. This was achieved by the determination of the KD, the concentration of free radioligand at which 50% of the transporter binding sites were occupied. The mean KD for a radioligand at a batch of membranes was determined from data from a minimum of three separate assays. The mean KD was subsequently used for all assays using the membrane batch profiled to enable determination of Ki values of compounds studied using the method determined by Cheng and Prussoff (Cheng Y C and Prusoff W H. Relationship between the inhibition constant (Ki) and the concentration of inhibitor which causes 50% inhibition of an enzymatic reaction. Biochem Pharmacol 1973; 22:2099-[…].) […]

In assay [2] the target is T2, human noradrenaline transporter (hNET) (Homo sapiens, UniProt P23975).
T2 construct: expressed in transfected cells; host or cells: HEK-293
Briefly: SPA radioligand binding (3H-nisoxetine) at the human noradrenaline transporter. The note with it: hNET membranes from HEK-293 cells, Cheng-Prusoff, geometric mean, read-out: NRI Ki. The protocol: as §1, §2, §3, §4, §5, §6, §7, §8, §9, §10

Structures are written as SMILES. pKi: −log10 of the molar value. Where a name gives a salt, the structure may show the parent alone.

The pKi is the negative decadic logarithm of the Ki, by convention in mol/L.

T1 sequence (P31645 whole entry): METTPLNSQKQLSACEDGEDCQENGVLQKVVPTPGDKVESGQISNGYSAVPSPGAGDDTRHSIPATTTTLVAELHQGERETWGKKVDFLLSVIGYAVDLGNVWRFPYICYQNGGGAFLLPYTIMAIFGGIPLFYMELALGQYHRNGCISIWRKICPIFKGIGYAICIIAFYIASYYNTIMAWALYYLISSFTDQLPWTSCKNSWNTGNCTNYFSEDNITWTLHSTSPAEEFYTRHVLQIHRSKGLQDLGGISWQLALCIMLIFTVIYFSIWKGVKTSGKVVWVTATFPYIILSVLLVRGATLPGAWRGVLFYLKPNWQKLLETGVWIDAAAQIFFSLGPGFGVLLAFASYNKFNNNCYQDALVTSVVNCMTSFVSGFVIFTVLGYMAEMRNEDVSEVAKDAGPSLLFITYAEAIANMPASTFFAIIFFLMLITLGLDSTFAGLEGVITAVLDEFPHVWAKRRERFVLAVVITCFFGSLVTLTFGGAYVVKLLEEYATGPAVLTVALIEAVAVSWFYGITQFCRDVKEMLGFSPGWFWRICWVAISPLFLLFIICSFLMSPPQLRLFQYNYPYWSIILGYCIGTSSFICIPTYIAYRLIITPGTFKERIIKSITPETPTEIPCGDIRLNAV
T2 sequence (P23975 whole entry): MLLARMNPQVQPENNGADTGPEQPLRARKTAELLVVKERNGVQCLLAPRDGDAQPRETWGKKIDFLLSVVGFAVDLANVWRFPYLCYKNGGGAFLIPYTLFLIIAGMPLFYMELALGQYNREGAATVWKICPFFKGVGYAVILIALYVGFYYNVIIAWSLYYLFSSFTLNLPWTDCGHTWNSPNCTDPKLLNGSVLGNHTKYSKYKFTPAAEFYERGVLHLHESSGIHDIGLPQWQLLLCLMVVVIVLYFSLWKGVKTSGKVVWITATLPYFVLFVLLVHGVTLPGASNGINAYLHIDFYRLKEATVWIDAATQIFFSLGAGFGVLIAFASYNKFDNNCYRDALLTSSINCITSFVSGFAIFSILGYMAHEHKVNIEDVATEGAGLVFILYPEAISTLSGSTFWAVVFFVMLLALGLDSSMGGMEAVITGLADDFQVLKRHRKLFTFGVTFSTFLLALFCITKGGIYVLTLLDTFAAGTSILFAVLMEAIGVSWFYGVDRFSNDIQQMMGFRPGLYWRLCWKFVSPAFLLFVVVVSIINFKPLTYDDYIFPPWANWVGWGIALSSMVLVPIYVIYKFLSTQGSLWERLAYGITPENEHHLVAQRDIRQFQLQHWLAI

Turning to `O=C(c1ccccc1Cl)N(C1CC2CCC1C2)[C@H]1CCNC1` (stereo partly drawn) [Example 4, N-Bicyclo[2.2.1]hept-2-yl-2-chloro-N-[(3S)-pyrrolidin-3-yl]benzamide], the pKi in assay [1] was 8.22; in assay [2], 7.60.

Turning to `O=C(c1cccc(Cl)c1Cl)N(C(C1CC1)C1CC1)[C@H]1CCNC1` [Example 10, 2,3-dichloro-N-(dicyclopropylmethyl)-N-[(3S)-pyrrolidin-3-yl]benzamide hydrochloride], the negative logarithm of the Ki (pKi) in assay [1] is 7.96; in assay [2], 7.14.

As for `O=C(c1ccccc1C(F)(F)F)N(C1CC2CCC1C2)[C@H]1CCNC1` (stereo partly drawn) [Example 3, N-Bicyclo[2.2.1]hept-2-yl-2-(trifluoromethyl)N-[(3S)pyrrolidin-3-yl]benzamide], the negative-log Ki (pKi) in assay [1] is 7.52; in assay [2] it was 7.55.

For `O=C(c1cccc(Cl)c1Cl)N([C@H]1C[C@H]2CC[C@H]2C1)[C@H]1CCNC1` [Example 1, N-(1R,3r,5 S)-Bicyclo[3.2.0]hept-3-yl-2,3-dichloro-N-[(3S)-pyrrolidin-3-yl]benzamide], the negative-log Ki (pKi) was 8.05 in assay [1] and 7.92 in assay [2].

For the molecule `CC(F)(F)CN(C(=O)c1ccccc1Oc1ccccc1)[C@H]1CCNC1` [Example 7, N-(2,2-Difluoropropyl)-2-phenoxy-N-[(3S)-pyrrolidin-3-yl]benzamide hydrochloride], the pKi in assay [1] is 5.80; in assay [2], 8.00.

Consider `O=C(c1cccc(Cl)c1Cl)N(CCC(F)(F)F)[C@H]1CCNC1` [Example 5, 2,3-Dichloro-N-[(3S)-pyrrolidin-3-yl]-N-(3,3,3-trifluoropropyl)benzamide hydrochloride], for which the pKi in assay [1] is 7.68; in assay [2] it was 7.24.
